According to publication PMC11240139, “Exploring the antitumor potential of novel quinoline derivatives via tubulin polymerization inhibition in breast cancer; design, synthesis and molecular docking” (RSC Advances, 2024):

Columns and labels:
HS 578T (breast cancer) = assay: NCI-60 SRB cytotoxicity screen; assay type: cell-based; conditions: Homo sapiens, single dose 10 μM, read-out: growth inhibition (GI%)
T-47D (breast cancer) = assay: NCI-60 SRB cytotoxicity screen; assay type: cell-based; conditions: Homo sapiens, T47D, single dose 10 μM, read-out: growth inhibition (GI%)
DU-145 (prostate cancer) = assay: NCI-60 SRB cytotoxicity screen; assay type: cell-based; conditions: Homo sapiens; DU-145, single dose 10 μM; read-out: growth inhibition (GI%)
SNB-75 (CNS cancer) = assay: NCI-60 SRB cytotoxicity screen; assay type: cell-based; conditions: Homo sapiens, SNB-75, SNB-75, single dose 10 μM; read-out: growth inhibition (GI%)
COLO 205 (colon cancer) = assay: NCI-60 SRB cytotoxicity screen; assay type: cell-based; conditions: Homo sapiens; COLO 205, single dose 10 μM; read-out: growth inhibition (GI%)
HCC-2998 (colon cancer) = assay: NCI-60 SRB cytotoxicity screen; assay type: cell-based; conditions: Homo sapiens; HCC-2998, single dose 10 μM; read-out: growth inhibition (GI%)
HCT-116 (colon cancer) = assay: NCI-60 SRB cytotoxicity screen; assay type: cell-based; conditions: Homo sapiens; HCT-116, single dose 10 μM; read-out: growth inhibition (GI%)
OVCAR-3 (ovarian cancer) = assay: NCI-60 SRB cytotoxicity screen; assay type: cell-based; conditions: Homo sapiens; OVCAR-3, single dose 10 μM; read-out: growth inhibition (GI%)
[1] = test system: NCI-H322M (non-small cell lung cancer); assay: NCI-60 SRB cytotoxicity screen; assay type: cell-based; conditions: Homo sapiens, single dose 10 μM, read-out: growth inhibition (GI%)
RPMI-8226 (leukemia) = assay: NCI-60 SRB cytotoxicity screen; assay type: cell-based; conditions: Homo sapiens; RPMI-8226, single dose 10 μM; read-out: growth inhibition (GI%)
[2] = test system: HOP-62 (non-small cell lung cancer); assay: NCI-60 SRB cytotoxicity screen; assay type: cell-based; conditions: Homo sapiens; HOP-62, single dose 10 μM; read-out: growth inhibition (GI%)
OVCAR-8 (ovarian cancer) = assay: NCI-60 SRB cytotoxicity screen; assay type: cell-based; conditions: Homo sapiens; OVCAR-8, single dose 10 μM; read-out: growth inhibition (GI%)
SK-MEL-2 (melanoma) = assay: NCI-60 SRB cytotoxicity screen; assay type: cell-based; conditions: Homo sapiens; SK-MEL-2, single dose 10 μM; read-out: growth inhibition (GI%)
OVCAR-4 (ovarian cancer) = assay: NCI-60 SRB cytotoxicity screen; assay type: cell-based; conditions: Homo sapiens; OVCAR-4, single dose 10 μM; read-out: growth inhibition (GI%)
PC-3 (prostate cancer) = assay: NCI-60 SRB cytotoxicity screen; assay type: cell-based; conditions: PC-3, single dose 10 μM; read-out: growth inhibition (GI%)
UACC-62 (melanoma) = assay: NCI-60 SRB cytotoxicity screen; assay type: cell-based; conditions: Homo sapiens; UACC-62, single dose 10 μM; read-out: growth inhibition (GI%)
UACC-257 (melanoma) = assay: NCI-60 SRB cytotoxicity screen; assay type: cell-based; conditions: Homo sapiens; UACC-257, single dose 10 μM; read-out: growth inhibition (GI%)
CCRF-CEM (leukemia) = assay: NCI-60 SRB cytotoxicity screen; assay type: cell-based; conditions: Homo sapiens, single dose 10 μM, read-out: growth inhibition (GI%)
SF-295 (CNS cancer) = assay: NCI-60 SRB cytotoxicity screen; assay type: cell-based; conditions: Homo sapiens; SF-295, single dose 10 μM; read-out: growth inhibition (GI%)
SK-OV-3 (ovarian cancer) = assay: NCI-60 SRB cytotoxicity screen; assay type: cell-based; conditions: Homo sapiens; SK-OV-3, single dose 10 μM; read-out: growth inhibition (GI%)
[3] = test system: EKVX (non-small cell lung cancer); assay: NCI-60 SRB cytotoxicity screen; assay type: cell-based; conditions: Homo sapiens, single dose 10 μM, read-out: growth inhibition (GI%)
[4] = test system: A549/ATCC (non-small cell lung cancer); assay: NCI-60 SRB cytotoxicity screen; assay type: cell-based; conditions: Homo sapiens, single dose 10 μM, read-out: growth inhibition (GI%)
[5] = test system: 60 cancer cell lines (NCI); assay: NCI-60 single-dose screen, overall verdict over the panel; assay type: cell-based; conditions: single dose 10 μM, whole panel
Summary of the method: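 Compounds were tested at a single 10^−5 M dose across the NCI 60 cell line panel, with cells preincubated 24 h before treatment. Viability was measured by TCA fixation and sulforhodamine B staining, absorbance 540 nm. % cytotoxicity = [1 − (sample/negative control absorbance)] × 100.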

HCT-15 (colon cancer) = assay: NCI-60 SRB cytotoxicity screen; assay type: cell-based; conditions: Homo sapiens; HCT-15, single dose 10 μM; read-out: growth inhibition (GI%)
[6] = test system: NCI-H226 (non-small cell lung cancer); assay: NCI-60 SRB cytotoxicity screen; assay type: cell-based; conditions: Homo sapiens; NCI-H226, single dose 10 μM; read-out: growth inhibition (GI%)
U251 (CNS cancer) = assay: NCI-60 SRB cytotoxicity screen; assay type: cell-based; conditions: Homo sapiens, U-251; U251, single dose 10 μM; read-out: growth inhibition (GI%)
SF-268 (CNS cancer) = assay: NCI-60 SRB cytotoxicity screen; assay type: cell-based; conditions: Homo sapiens; SF-268, single dose 10 μM; read-out: growth inhibition (GI%)
K-562 (leukemia) = assay: NCI-60 SRB cytotoxicity screen; assay type: cell-based; conditions: Homo sapiens; K-652 [sic], single dose 10 μM; read-out: growth inhibition (GI%)
HL-60(TB) (leukemia) = assay: NCI-60 SRB cytotoxicity screen; assay type: cell-based; conditions: Homo sapiens, single dose 10 μM, read-out: growth inhibition (GI%)
[7] = test system: MDA-MB-231/ATCC (breast cancer); assay: NCI-60 SRB cytotoxicity screen; assay type: cell-based; conditions: Homo sapiens, MDA-MB-231, read-out: growth inhibition (GI%);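 further: growth inhibition in percent at a single 10 µM dose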
UO-31 (renal cancer) = assay: NCI-60 SRB cytotoxicity screen; assay type: cell-based; conditions: Homo sapiens; UO-31, single dose 10 μM; read-out: growth inhibition (GI%)
[8] = test system: HOP-92 (non-small cell lung cancer); assay: NCI-60 SRB cytotoxicity screen; assay type: cell-based; conditions: Homo sapiens; HOP-92, single dose 10 μM; read-out: growth inhibition (GI%)
RXF 393 (renal cancer) = assay: NCI-60 SRB cytotoxicity screen; assay type: cell-based; conditions: Homo sapiens; RXF 393, single dose 10 μM; read-out: growth inhibition (GI%)
OVCAR-5 (ovarian cancer) = assay: NCI-60 SRB cytotoxicity screen; assay type: cell-based; conditions: Homo sapiens; OVCAR-5, single dose 10 μM; read-out: growth inhibition (GI%)

SMILES | inhibition at 10 µM (HS 578T (breast cancer)) | inhibition at 10 µM (T-47D (breast cancer)) | inhibition at 10 µM (DU-145 (prostate cancer)) | inhibition at 10 µM (SNB-75 (CNS cancer)) | inhibition at 10 µM (COLO 205 (colon cancer)) | inhibition at 10 µM (HCC-2998 (colon cancer)) | inhibition at 10 µM (HCT-116 (colon cancer)) | inhibition at 10 µM (OVCAR-3 (ovarian cancer)) | inhibition at 10 µM [1] | inhibition at 10 µM (RPMI-8226 (leukemia)) | inhibition at 10 µM [2] | melting point | inhibition at 10 µM (OVCAR-8 (ovarian cancer)) | inhibition at 10 µM (SK-MEL-2 (melanoma)) | inhibition at 10 µM (OVCAR-4 (ovarian cancer)) | inhibition at 10 µM (PC-3 (prostate cancer)) | inhibition at 10 µM (UACC-62 (melanoma)) | inhibition at 10 µM (UACC-257 (melanoma)) | inhibition at 10 µM (CCRF-CEM (leukemia)) | inhibition at 10 µM (SF-295 (CNS cancer)) | other results
CCc1cccc2cc(-c3cc(-c4ccc(F)cc4)[nH]c(=O)c3C#N)c(Cl)nc12 [Compound 4d, 4-(2-Chloro-8-ethylquinolin-3-yl)-6-(4-fluorophenyl)-2-oxo-1,2-dihydropyridine-3-carbonitrile] | < 10% | 14.4% | < 10% | < 10% | < 10% | < 10% | < 10% | < 10% | < 10% | 14% | < 10% | 260 to 262 °C | < 10% | < 10% | 11% | < 10% | 16.5% | < 10% | < 10% | < 10% | inhibition at 10 µM (SK-OV-3 (ovarian cancer)): < 10%; inhibition at 10 µM [3]: < 10%; inhibition at 10 µM [4]: < 10%; cytotoxic activity over the cell lines (in words) [5]: mild cytotoxic activity; inhibition at 10 µM (HCT-15 (colon cancer)): 11.1%; inhibition at 10 µM [6]: 14.3%; inhibition at 10 µM (U251 (CNS cancer)): < 10%; inhibition at 10 µM (SF-268 (CNS cancer)): < 10%; inhibition at 10 µM (K-562 (leukemia)): 27.2%; inhibition at 10 µM (HL-60(TB) (leukemia)): < 10%; inhibition at 10 µM [7]: 19.9%; inhibition at 10 µM (UO-31 (renal cancer)): 27.9%; inhibition at 10 µM [8]: < 10%; inhibition at 10 µM (RXF 393 (renal cancer)): < 10%; inhibition at 10 µM (OVCAR-5 (ovarian cancer)): < 10%
CCc1cccc2cc(C=CC(=O)c3ccc(F)cc3)c(Cl)nc12 [Compound 3d, 3-(2-Chloro-8-ethylquinolin-3-yl)-1-(4-fluorophenyl)prop-2-en-1-one] | < 10% | < 10% | < 10% | < 10% | < 10% | < 10% | < 10% | < 10% | < 10% | < 10% | < 10% | 215 to 217 °C | < 10% | < 10% | < 10% | < 10% | < 10% | < 10% | < 10% | < 10% | inhibition at 10 µM (SK-OV-3 (ovarian cancer)): < 10%; inhibition at 10 µM [3]: < 10%; inhibition at 10 µM [4]: < 10%; cytotoxic activity over the cell lines (in words) [5]: low cytotoxic activity; inhibition at 10 µM (HCT-15 (colon cancer)): < 10%; inhibition at 10 µM [6]: < 10%; inhibition at 10 µM (U251 (CNS cancer)): < 10%; inhibition at 10 µM (SF-268 (CNS cancer)): < 10%; inhibition at 10 µM (K-562 (leukemia)): < 10%; inhibition at 10 µM (HL-60(TB) (leukemia)): < 10%; inhibition at 10 µM [7]: < 10%; inhibition at 10 µM (UO-31 (renal cancer)): < 10%; inhibition at 10 µM [8]: < 10%; inhibition at 10 µM (RXF 393 (renal cancer)): < 10%; inhibition at 10 µM (OVCAR-5 (ovarian cancer)): < 10%
CCc1cccc2cc(C3C=C(c4ccc(F)cc4)NC(=S)N3)c(Cl)nc12 (centres unmarked) [Compound 6d, 4-(2-Chloro-8-ethylquinolin-3-yl)-6-(4-fluorophenyl)-3,4-dihydropyrimidine-2(1H)-thione] | < 10% | 23.9% | < 10% | < 10% | < 10% | < 10% | 21.5% | < 10% | < 10% | 19.3% | 15.2% | 220 to 222 °C | < 10% | < 10% | 21% | 22% | 14.2% | < 10% | < 10% | < 10% | inhibition at 10 µM (SK-OV-3 (ovarian cancer)): < 10%; inhibition at 10 µM [3]: < 10%; inhibition at 10 µM [4]: < 10%; cytotoxic activity over the cell lines (in words) [5]: limited cytotoxic activity; inhibition at 10 µM (HCT-15 (colon cancer)): 26.2%; inhibition at 10 µM [6]: 21.7%; inhibition at 10 µM (U251 (CNS cancer)): < 10%; inhibition at 10 µM (SF-268 (CNS cancer)): 14.9%; inhibition at 10 µM (K-562 (leukemia)): 27.6%; inhibition at 10 µM (HL-60(TB) (leukemia)): < 10%; inhibition at 10 µM [7]: < 10%; inhibition at 10 µM (UO-31 (renal cancer)): 49.5%; inhibition at 10 µM [8]: < 10%; inhibition at 10 µM (RXF 393 (renal cancer)): < 10%; inhibition at 10 µM (OVCAR-5 (ovarian cancer)): < 10%
CCc1cccc2cc(C=CC(=O)c3ccc(Br)cc3)c(Cl)nc12 [Compound 3e, 1-(4-Bromophenyl)-3-(2-chloro-8-ethylquinolin-3-yl)prop-2-en-1-one] | < 10% | < 10% | < 10% | < 10% | < 10% | < 10% | < 10% | < 10% | < 10% | < 10% | < 10% | 210 to 212 °C | < 10% | < 10% | < 10% | < 10% | < 10% | < 10% | < 10% | < 10% | inhibition at 10 µM (SK-OV-3 (ovarian cancer)): < 10%; inhibition at 10 µM [3]: < 10%; inhibition at 10 µM [4]: < 10%; cytotoxic activity over the cell lines (in words) [5]: low cytotoxic activity; inhibition at 10 µM (HCT-15 (colon cancer)): < 10%; inhibition at 10 µM [6]: < 10%; inhibition at 10 µM (U251 (CNS cancer)): < 10%; inhibition at 10 µM (SF-268 (CNS cancer)): < 10%; inhibition at 10 µM (K-562 (leukemia)): < 10%; inhibition at 10 µM (HL-60(TB) (leukemia)): < 10%; inhibition at 10 µM [7]: < 10%; inhibition at 10 µM (UO-31 (renal cancer)): < 10%; inhibition at 10 µM [8]: < 10%; inhibition at 10 µM (RXF 393 (renal cancer)): < 10%; inhibition at 10 µM (OVCAR-5 (ovarian cancer)): < 10%
